The text below walks through data of patent publication US11203600B2 (Denali Therapeutics Inc., priority 2017, dated 2021).

The assay deals with GST-hRIPK1 (8-327) (Homo sapiens (Human), UniProt Q13546). Kind of assay: Fluorescent Polarization Binding (FP Binding) assay, RIPK1. The conditions noted are these: mean of at least two independent experiments. The essentials: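 Compound displacement of 5 nM labelled ligand from 10 nM GST-hRIPK1 (8-327) was read as FP (531/595 nm) after 30 min at RT. Buffer: HEPES pH 7.5, NaCl, MgCl2, CHAPS, DTT, Pluronic; 1% DMSO final. IC50s were averaged over at least two independent runs.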
GST-hRIPK1 (8-327), sequence (Q13546 8-327): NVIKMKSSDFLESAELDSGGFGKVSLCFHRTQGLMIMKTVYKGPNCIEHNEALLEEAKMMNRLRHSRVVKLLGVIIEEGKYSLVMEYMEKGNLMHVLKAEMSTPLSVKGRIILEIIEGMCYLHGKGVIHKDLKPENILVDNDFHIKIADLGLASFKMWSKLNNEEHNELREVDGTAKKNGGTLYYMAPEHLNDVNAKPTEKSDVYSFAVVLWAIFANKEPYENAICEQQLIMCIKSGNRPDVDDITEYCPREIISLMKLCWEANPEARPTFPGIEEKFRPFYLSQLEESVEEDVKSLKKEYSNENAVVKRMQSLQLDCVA

Where [1] appears, read: 10 nM GST-hRIPK1 (8-327), 5 nM fluorescent-labeled ligand, RT, 30 min.

A word on the IC50: it is the concentration that gives 50% inhibition. Lower therefore signals higher potency. Regarding `CC1(C(=O)N2CCOc3c(C#N)cncc3C2)CCN(c2ncc(F)c(=O)[nH]2)CC1(F)F` (stereo not drawn) [Example 216, 4-[3,3-difluoro-1-(5-fluoro-6-oxo-1H-pyrimidin-2-yl)-4-methyl-piperidine-4-carbonyl]-3,5-dihydro-2H-pyrido[3,4-f][1,4]oxazepine-9-carbonitrile], under “GST-hRIPK1 (8-327)”, the concentration for half-maximal inhibition (IC50) was in the range of 100 to 1000 nM.

As to `N#Cc1cncc2c1OCCN(C(=O)C1CCN(c3ccnc4c(F)cnn34)CC1F)C2` (single isomer, unassigned) [Example 304, 4-[3-Fluoro-1-(3-fluoropyrazolo[1,5-a]pyrimidin-7-yl)piperidine-4-carbonyl]-3,5-dihydro-2H-pyrido[3,4-f][1,4]oxazepine-9-carbonitrile], the IC50 (GST-hRIPK1 (8-327)) was in the range of 0.1 to 100 nM.

`CC(F)(F)C(C)(C(=O)N1CCOc2c(C#N)cncc2C1)C(F)F` (stereo not drawn) [Example 269, 4-[2-(difluoromethyl)-3,3-difluoro-2-methyl-butanoyl]-3,5-dihydro-2H-pyrido[3,4-f][1,4]oxazepine-9-carbonitrile] showed an IC50 (GST-hRIPK1 (8-327)) of 100 to 1000 nM.

Take `CCC(C)(CC#N)C(=O)N1CCOc2c(C#N)cncc2C1` (single isomer, unassigned) [Example 265, 4-[2-(Cyanomethyl)-2-methyl-butanoyl]-3,5-dihydro-2H-pyrido[3,4-f][1,4]oxazepine-9-carbonitrile]: the half-maximal inhibitory concentration (IC50) (GST-hRIPK1 (8-327)) was 0.1 to 100 nM.

Turning to `N#Cc1cncc2c1OCCN(C(=O)C1(F)CCN(c3ncc(F)cn3)CC1)C2` [Example 161, 4-[4-fluoro-1-(5-fluoropyrimidin-2-yl)piperidine-4-carbonyl]-3,5-dihydro-2H-pyrido[3,4-f][1,4]oxazepine-9-carbonitrile], the IC50 under setting [1] is 0.1 to 100 nM.

`COC1(C(=O)N2CCOc3c(F)cncc3C2)CCN(c2ncc(F)cn2)CC1` [Example 121] yielded an IC50 under setting [1] of 0.1 to 100 nM.

Take `CC(C(=O)N1CCOc2c(C#N)cncc2C1)(C(F)F)C1CC1` (stereo not drawn) [Example 56, 4-(2-cyclopropyl-3,3-difluoro-2-methyl-propanoyl)-3,5-dihydro-2H-pyrido[3,4-f][1,4]oxazepine-9-carbonitrile]: the concentration for half-maximal inhibition (IC50) under setting [1] was 0.1 to 100 nM.

Regarding `N#Cc1cncc2c1OCCN(C(=O)C1(F)CCN(c3ccc4ccccc4n3)CC1)C2` [Example 200, 4-[4-fluoro-1-(2-quinolyl)piperidine-4-carbonyl]-3,5-dihydro-2H-pyrido[3,4-f][1,4]oxazepine-9-carbonitrile], the IC50 (GST-hRIPK1 (8-327)) was in the range of 0.1 to 100 nM.

`CC1(C(=O)N2CCOc3c(C#N)cncc3C2)CC(F)(F)C1` [Example 138, 4-(3,3-difluoro-1-methyl-cyclobutanecarbonyl)-3,5-dihydro-2H-pyrido[3,4-f][1,4]oxazepine-9-carbonitrile] returned an IC50 under setting [1] of 100 to 1000 nM.

For `CC(C)(C(=O)N1CCOc2c(Br)cc(F)cc2C1)C(F)F` [Example 37, 1-(9-bromo-7-fluoro-3,5-dihydro-2H-1,4-benzoxazepin-4-yl)-3,3-difluoro-2,2-dimethyl-propan-1-one], the 50% inhibitory concentration (IC50) under setting [1] was in the range of 100 to 1000 nM.

`O=C(C1CCN(c2ccnc3ccnn23)C[C@@H]1F)N1CCOc2c(F)cncc2C1` (stereo partly drawn) [Example 253, (9-fluoro-3,5-dihydro-2H-pyrido[3,4-f][1,4]oxazepin-4-yl)-[(3,4)-trans-3-fluoro-1-pyrazolo[1,5-a]pyrimidin-7-yl-4-piperidyl]methanone] had an IC50 (GST-hRIPK1 (8-327)) of 0.1 to 100 nM.

`N#Cc1cncc2c1OCCN(C(=O)C1CCN(c3nccc4ncnn34)C[C@@H]1F)C2` (stereo partly drawn) [Example 250, 4-[(3,4)-trans-3-fluoro-1-([1,2,4]triazolo[1,5-c]pyrimidin-5-yl)piperidine-4-carbonyl]-3,5-dihydro-2H-pyrido[3,4-f][1,4]oxazepine-9-carbonitrile] returned an IC50 (GST-hRIPK1 (8-327)) of 100 to 1000 nM.

`CC(C)(C(=O)N1CCOc2c(C#N)cncc2C1)C1CC(Cl)C1` (stereo not drawn) [Example 278, 4-[2-(3-chlorocyclobutyl)-2-methyl-propanoyl]-3,5-dihydro-2H-pyrido[3,4-f][1,4]oxazepine-9-carbonitrile] registered a concentration for half-maximal inhibition (IC50) (GST-hRIPK1 (8-327)) of 0.1 to 100 nM.

In turn, `CC(C)(CCF)C(=O)N1CCOc2c(C#N)cncc2C1` [Example 60, 4-(4-fluoro-2,2-dimethyl-butanoyl)-3,5-dihydro-2H-pyrido[3,4-f][1,4]oxazepine-9-carbonitrile] registered an IC50 under setting [1] of 100 to 1000 nM.

For `Cc1cc(C(F)(F)F)nc(N2CCC(F)(C(=O)N3CCOc4c(C#N)cncc4C3)CC2)n1` [Example 168, 4-[4-fluoro-1-[4-methyl-6-(trifluoromethyl)pyrimidin-2-yl]piperidine-4-carbonyl]-3,5-dihydro-2H-pyrido[3,4-f][1,4]oxazepine-9-carbonitrile], the IC50 under setting [1] fell in the range of 100 to 1000 nM.

As to `C[C@@H]1COc2c(C#N)cncc2CN1C(=O)C1CCN(c2ncc(F)cn2)CC1` [Example 104, (3R)-4-(1-(5-fluoropyrimidin-2-yl)piperidine-4-carbonyl)-3-methyl-2,3,4,5-tetrahydropyrido[3,4-f][1,4]oxazepine-9-carbonitrile], the IC50 under setting [1] is 0.1 to 100 nM.

With `CSc1nc(N2CCC(F)(C(=O)N3CCOc4c(C#N)cncc4C3)CC2)ncc1F` [Example 126, 4-[4-fluoro-1-(5-fluoro-4-methylsulfanyl-pyrimidin-2-yl)piperidine-4-carbonyl]-3,5-dihydro-2H-pyrido[3,4-f][1,4]oxazepine-9-carbonitrile], the IC50 under setting [1] lay in the range of 0.1 to 100 nM.

With `COC(C)(C(=O)N1CCOc2c(C#N)cncc2C1)C1CC1` (stereo not drawn) [Example 154, 4-(2-cyclopropyl-2-methoxy-propanoyl)-3,5-dihydro-2H-pyrido[3,4-f][1,4]oxazepine-9-carbonitrile], the IC50 under setting [1] lay within 100 to 1000 nM.

`CC(C)(C(=O)N1CCOc2c(F)cccc2C1)C1CC1` [Example 15, 2-cyclopropyl-1-(9-fluoro-3,5-dihydro-2H-1,4-benzoxazepin-4-yl)-2-methyl-propan-1-one] gave a concentration for half-maximal inhibition (IC50) under setting [1] of 0.1 to 100 nM.

Compound `CC(C)(C(=O)N1CCOc2c(C#N)cncc2C1)C1CCN(c2ncc(F)cn2)C1` (single isomer, unassigned) [Example 280, 4-[2-(-1-(5-Fluoropyrimidin-2-yl)pyrrolidin-3-yl)-2-methyl-propanoyl]-3,5-dihydro-2H-pyrido[3,4-f][1,4]oxazepine-9-carbonitrile] returned an IC50 (GST-hRIPK1 (8-327)) of more than 1000 nM.

`N#Cc1cncc2c1OCCN(C(=O)C1(F)CCN(c3nccc(C(F)(F)F)n3)CC1)C2` [Example 167, 4-[4-fluoro-1-[4-(trifluoromethyl)pyrimidin-2-yl]piperidine-4-carbonyl]-3,5-dihydro-2H-pyrido[3,4-f][1,4]oxazepine-9-carbonitrile] gave an IC50 under setting [1] of 100 to 1000 nM.

Compound `CC(C)(C(=O)N1CCOc2c(cnc(Cl)c2C#N)C1)C(F)F` [Example 59, 8-chloro-4-(3,3-difluoro-2,2-dimethyl-propanoyl)-3,5-dihydro-2H-pyrido[3,4-f][1,4]oxazepine-9-carbonitrile] displayed a half-maximal inhibitory concentration (IC50) under setting [1] of 100 to 1000 nM.

Consider `CC(C)(C(=O)N1CCOc2c(C#N)cncc2C1)C1CC(F)(F)C1` [Example 84, 4-[2-(3,3-difluorocyclobutyl)-2-methyl-propanoyl]-3,5-dihydro-2H-pyrido[3,4-f][1,4]oxazepine-9-carbonitrile], for which, under setting [1], the half-maximal inhibitory concentration (IC50) is 0.1 to 100 nM.

Consider `CC(C)(CC#N)C(=O)N1CCOc2c(F)cncc2C1` [Example 70, 4-(9-fluoro-2,3-dihydropyrido[3,4-f][1,4]oxazepin-4(5H)-yl)-3,3-dimethyl-4-oxobutanenitrile], for which, under setting [1], the IC50 fell in the range of 100 to 1000 nM.

Regarding `[2H]C1([2H])Oc2c(C#N)cncc2CN(C(=O)C(C)(C)C(F)F)C1([2H])[2H]` [Example 263, 2,2,3,3-tetradeuterio-4-(3,3-difluoro-2,2-dimethyl-propanoyl)-5H-pyrido[3,4-f][1,4]oxazepine-9-carbonitrile], where the note is “GST-hRIPK1 (8-327)”, the IC50 was in the range of 0.1 to 100 nM.

Under “GST-hRIPK1 (8-327)”, `N#Cc1cncc2c1OCCN(C(=O)C1=CCN(c3ncc(F)cn3)CC1)C2` [Example 245, 4-[1-(5-fluoropyrimidin-2-yl)-3,6-dihydro-2H-pyridine-4-carbonyl]-3,5-dihydro-2H-pyrido[3,4-f][1,4]oxazepine-9-carbonitrile] gave a half-inhibitory concentration (IC50) of 100 to 1000 nM.

On to `CC(C)(C(=O)N1CCOc2c(C#N)cncc2C1)C1CC(n2nccn2)C1` (stereo not drawn) [Example 275, 4-[2-Methyl-2-[3-(triazol-2-yl)cyclobutyl]propanoyl]-3,5-dihydro-2H-pyrido[3,4-f][1,4]oxazepine-9-carbonitrile], for which the IC50 (GST-hRIPK1 (8-327)) lay in the range of 100 to 1000 nM.

Under setting [1], `CC(C)(C(=O)N1CCOc2c(C#N)cccc2C1)C(F)F` [Example 23, 4-(3,3-difluoro-2,2-dimethyl-propanoyl)-3,5-dihydro-2H-1,4-benzoxazepine-9-carbonitrile] returned a concentration for half-maximal inhibition (IC50) of 0.1 to 100 nM.

For `CCC(C)(C(=O)N1CCOc2c(C#N)cncc2C1)C(F)F` (single isomer, unassigned) [Example 261, 4-(2-(Difluoromethyl)-2-methylbutanoyl)-2,3,4,5-tetrahydropyrido[3,4-f][1,4]oxazepine-9-carbonitrile], the half-inhibitory concentration (IC50) (GST-hRIPK1 (8-327)) lay in the range of 0.1 to 100 nM.

For the compound `O=C(C1CCN(c2ncc(F)cn2)C[C@@H]1F)N1CCOc2c(F)cncc2C1` (stereo partly drawn) [Example 247], for the setting “GST-hRIPK1 (8-327)”, the IC50 was in the range of 0.1 to 100 nM.

Under setting [1], `CC(C)COC(=O)N1CCC(F)(C(=O)N2CCOc3c(C#N)cncc3C2)CC1` [Example 174, isobutyl 4-(9-cyano-3,5-dihydro-2H-pyrido[3,4-f][1,4]oxazepine-4-carbonyl)-4-fluoro-piperidine-1-carboxylate] yielded a concentration for half-maximal inhibition (IC50) of more than 1000 nM.

`N#Cc1cncc2c1OCCN(C(=O)C1(F)CCN(c3ncc(F)cc3F)CC1)C2` [Example 192, 4-[1-(3,5-difluoro-2-pyridyl)-4-fluoro-piperidine-4-carbonyl]-3,5-dihydro-2H-pyrido[3,4-f][1,4]oxazepine-9-carbonitrile]: the IC50 under setting [1] lay within 0.1 to 100 nM.

In turn, `CCC(C)(OC)C(=O)N1CCOc2c(C#N)cncc2C1` (stereo not drawn) [Example 153, 4-(2-methoxy-2-methyl-butanoyl)-3,5-dihydro-2H-pyrido[3,4-f][1,4]oxazepine-9-carbonitrile] displayed an IC50 under setting [1] of 0.1 to 100 nM.
